{
  "source": "paper PMC12700101",
  "about": "(2025)",
  "key": {"[1]": {"system": "Dopamine MAB FAM–BHQ-1 (DNA, aptamer) ACGCCAGTTTGAAGGTTCGTTCGCAGGTGTGGAGTGACGT", "test": "fluorescence quenching titration (molecular aptamer beacon)", "conditions": "1x PBS, 2 mM MgCl2; apparent; pH 8.0, 25 °C"}, "[2]": {"system": "Dopamine DBS Cy3–BHQ-1 (Position 1/Adjacent) (DNA, aptamer) AAATACAACAAGAAAAAACTCTCGGGACGACGACCAGTTTGAAGGTTCGTTCGCAGGTGTGGAGTGACGTCGTCCC", "test": "fluorescence strand-displacement titration", "conditions": "1x PBS, 2 mM MgCl2; apparent; pH 8.0, 25 °C; displaced CGTCGTCCCCTCTTCACATATCTATTTTTTCTTGTTGTATTT, 4 eq, 5'-BHQ-1"}, "[3]": {"system": "Dopamine DBS Cy3(+T)/BHQ-1 (DNA, aptamer) AAATACAACAAGAAAAAACTCTCGGGACGACGTCCAGTTTGAAGGTTCGTTCGCAGGTGTGGAGTGACGTCGTCCC", "test": "fluorescence melting", "conditions": "1x PBS, 2 mM MgCl2; pH 8.0; 50 µM dopamine; derived from two Tm (51.6, 50.9); displacement strand 1:4"}, "[4]": {"system": "Dopamine MAB FAM–BHQ-1 (DNA, aptamer) ACGCCAGTTTGAAGGTTCGTTCGCAGGTGTGGAGTGACGT", "test": "fluorescence melting", "conditions": "1x PBS, 2 mM MgCl2; derived from two Tm (44.8 ± 0, 37.7 ± 0.1); 50 µM dopamine, pH 8.0"}, "[5]": {"system": "Dopamine MAB FAM–Dab (DNA, aptamer, dabcyl-5-methyl-dC at 41 (3' end)) ACGCCAGTTTGAAGGTTCGTTCGCAGGTGTGGAGTGACGTC", "test": "fluorescence melting", "conditions": "1x PBS, 2 mM MgCl2; derived from two Tm (41.7 ± 0.2, 36.9 ± 0.1); 50 µM dopamine, pH 8.0"}, "[6]": {"system": "Dopamine DBS FAM(+T)/BHQ-1 (DNA, aptamer, 6-FAM-modified dT (click, i6-FAMK) at 33) AAATACAACAAGAAAAAACTCTCGGGACGACGTCCAGTTTGAAGGTTCGTTCGCAGGTGTGGAGTGACGTCGTCCC …", "test": "fluorescence melting", "conditions": "1x PBS, 2 mM MgCl2; pH 8.0; 50 µM dopamine; derived from two Tm (49.1, 48.9); displacement strand 1:4"}, "[7]": {"system": "Dopamine DBS Cy3/BHQ-1 (int.) (DNA, aptamer) AAATACAACAAGAAAAAACTCTCGGGACGACGCCAGTTTGAAGGTTCGTTCGCAGGTGTGGAGTGACGTCGTCCC", "test": "fluorescence melting", "conditions": "1x PBS, 2 mM MgCl2; pH 8.0; 50 µM dopamine; derived from two Tm (50.9, 50.4); displacement strand 1:4"}},
  "data": [
    {"smiles": "NCCc1ccc(O)c(O)c1", "values": [
      {"measurement": "Kd", "setting": "[1]", "result": "3.0 ± 0.1", "unit": "µM"},
      {"measurement": "Kd", "setting": "[2]", "result": "229.9 ± 22.0", "unit": "µM"},
      {"measurement": "Tm", "setting": "[3]", "result": -0.7, "unit": "°C"},
      {"measurement": "Tm", "setting": "[4]", "result": -7.1, "unit": "°C"},
      {"measurement": "Tm", "setting": "[5]", "result": -4.8, "unit": "°C"},
      {"measurement": "Tm", "setting": "[6]", "result": -0.2, "unit": "°C"},
      {"measurement": "Tm", "setting": "[7]", "result": -0.5, "unit": "°C"}
    ]}
  ]
}
